Data: patent publication US7354927B2, “6H-[1]benzopyrano[4,3-b]quinolines and their use as estrogenic agents” (Wyeth, priority 2004, dated 2008)

Tests used:
human ERβ = molecular target: T1, human ERβ (Homo sapiens, UniProt Q92731); test: Competition with [3H]-17β-estradiol for binding to the ERβ ligand binding domain; conditions: for IC50: E. coli lysate expressing human ERβ LBD, 2 nM [3H]-17β-estradiol, 5-15 hours at room temperature
T1 construct: made in house; host or cells: E. coli (crude lysate)
Method: (§1) Representative examples of the invention were evaluated for their ability to compete with 17β-estradiol for both ERα and ERβ. The test procedure used allows one to determine whether a particular compound binds to the estrogen receptor (and is therefore “estrogenic”) and whether there is selectivity for ERα or ERβ. […] The IC50 is defined as the concentration of compound that decreases total 17β-estradiol binding by 50%. The procedure used is briefly described. A crude lysate of E. coil expressing the estrogen receptor ligand binding domains (D, E, and F) of human ERα or ERβ was prepared. Both receptors and compounds were diluted in 1× Dulbecco's phosphate buffered saline (DPBS) supplemented with 1 mM ethylenediamine tetraacetic acid (EDTA). Using a high binding masked microtiter plate, 100 uL of receptor (1 uG/well) was combined with 2 nM [^3H]-17β-estradiol and various concentrations of compound. After between 5 and 15 hours at room temperature, the plates were washed with DPBS/1 mM EDTA and bound radioactivity determined by liquid scintillation counting.

human ERα = molecular target: T2, human ERα (Homo sapiens, UniProt P03372); test: Competition with [3H]-17β-estradiol for binding to the ERα ligand binding domain; conditions: E. coli lysate expressing human ERα LBD; 2 nM [3H]-17β-estradiol; 5-15 hours at room temperature
T2 construct: made in house; host or cells: E. coli (crude lysate)
T2 sequence (P03372 311-547 limits assumed): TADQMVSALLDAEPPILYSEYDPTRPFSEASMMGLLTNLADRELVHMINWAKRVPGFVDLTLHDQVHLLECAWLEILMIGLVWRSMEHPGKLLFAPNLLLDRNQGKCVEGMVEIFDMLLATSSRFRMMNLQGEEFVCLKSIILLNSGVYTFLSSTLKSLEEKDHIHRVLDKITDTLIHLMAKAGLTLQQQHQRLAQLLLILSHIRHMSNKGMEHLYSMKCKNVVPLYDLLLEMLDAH
Method: as §1

T1 sequence (Q92731 264-498 limits assumed): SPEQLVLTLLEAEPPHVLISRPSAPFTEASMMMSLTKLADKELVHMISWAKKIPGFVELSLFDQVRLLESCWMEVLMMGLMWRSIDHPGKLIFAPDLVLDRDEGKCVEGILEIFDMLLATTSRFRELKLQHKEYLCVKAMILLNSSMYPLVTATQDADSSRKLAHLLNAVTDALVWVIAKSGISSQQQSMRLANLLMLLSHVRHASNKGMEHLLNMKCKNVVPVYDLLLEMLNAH

| SMILES | melting point | IC50 (human ERβ) [nM] | α/β receptor selectivity (ratio of ERα IC50 to ERβ IC50) (human ERβ) | IC50 (human ERα) [nM] |
| --- | --- | --- | --- | --- |
| C[Si](C)(C)C#Cc1c2c(nc3ccc(O)cc13)-c1ccc(O)cc1OC2 [Cpd 9, 3,9-DIHYDROXY-7-[(TRIMETHYLSILYL)ETHYNYL]-6H-CHROMENO[4,3-b]QUINOLINE] | 160 °C (dec.) | 225 | 0.8 | 169 |
| C#Cc1c2c(nc3ccc(O)cc13)-c1ccc(O)cc1OC2 [Cpd 10, 3,9-DIHYDROXY-7-ETHYNYL-6H-CHROMENO[4,3-b]QUINOLINE] | 220 °C (dec.) | 37 | 3 | 131 |
| Oc1ccc2c(c1)OCc1c-2nc2ccc(O)cc2c1-c1ccc(Cl)cc1 [Cpd 13, 7-(4-CHLOROPHENYL)-3,9-DIHYDROXY-6H-CHROMENO[4,3-b]QUINOLINE] | 215 to 218 °C (dec.) | 160 | 19 | 3090 |
| COc1ccc(-c2c3c(nc4ccc(O)cc24)-c2ccc(O)cc2OC3)cc1 [Cpd 15, 3,9-DIHYDROXY-7-(4-METHOXYPHENYL)-6H-CHROMENO[4,3-b]QUINOLINE] | 195 °C (dec.) | 61 | 6 | 357 |
| Oc1ccc2c(c1)OCc1c-2nc2ccc(O)cc2c1-c1ccc(C(F)(F)F)cc1 [Cpd 16, 3,9-DIHYDROXY-7-[4-(TRIFLUOROMETHYL)PHENYL]-6H-CHROMENO[4,3-b]QUINOLINE] | 175 to 177 °C (dec.) | 137 | 44 | 6090 |
| Oc1ccc2c(c1)OCc1c-2nc2ccc(O)cc2c1-c1cccc(Cl)c1 [Cpd 17, 7-(3-CHLOROPHENYL)-3,9-DIHYDROXY-6H-CHROMENO[4,3-b]QUINOLINE] | 162 to 165 °C (dec.) | 130 | 4 | 505 |
| COc1cccc(-c2c3c(nc4ccc(O)cc24)-c2ccc(O)cc2OC3)c1 [Cpd 18, 3,9-DIHYDROXY-7-(3-METHOXYPHENYL)-6H-CHROMENO[4,3-b]QUINOLINE] | 155 to 158 °C (dec.) | 86 | 10 | 820 |

Continued, values first:

| melting point | IC50 (human ERβ) [nM] | α/β receptor selectivity (ratio of ERα IC50 to ERβ IC50) (human ERβ) | IC50 (human ERα) [nM] | SMILES |
| --- | --- | --- | --- | --- |
| 190 to 191 °C | – | – | – | COc1ccc2c(c1)OCc1c-2nc2ccc(OC)cc2c1Cl [Cpd 4, 7-CHLORO-3,9-DIMETHOXY-6H-CHROMENO[4,3-b]QUINOLINE] |
| 196 to 197 °C | – | – | – | COc1ccc2c(c1)OCc1c-2nc2ccc(OC)cc2c1Br [Cpd 5, 7-BROMO-3,9-DIMETHOXY-6H-CHROMENO[4,3-b]QUINOLINE] |
| 235 °C (dec.) | 3.3 | 27 | 88 | Oc1ccc2c(c1)OCc1c-2nc2ccc(O)cc2c1Cl [Cpd 6, 7-CHLORO-3,9-DIHYDROXY-6H-CHROMENO[4,3-b]QUINOLINE] |
| 240 °C (dec.) | 3.6 | 18 | 63 | Oc1ccc2c(c1)OCc1c-2nc2ccc(O)cc2c1Br [Cpd 7, 7-BROMO-3,9-DIHYDROXY-6H-CHROMENO[4,3-b]QUINOLINE] |
| 160 °C (dec.) | 31 | 18 | 548 | C=Cc1c2c(nc3ccc(O)cc13)-c1ccc(O)cc1OC2 [Cpd 8, 3,9-DIHYDROXY-7-VINYL-6H-CHROMENO[4,3-b]QUINOLINE] |
| 145 °C (dec.) | 5 | 13 | 66 | CCc1c2c(nc3ccc(O)cc13)-c1ccc(O)cc1OC2 [Cpd 11, 3,9-DIHYDROXY-7-ETHYL-6H-CHROMENO[4,3-b]QUINOLINE] |
| – | 5.6 | 7 | 40 | N#Cc1c2c(nc3ccc(O)cc13)-c1ccc(O)cc1OC2 [Cpd 12, 7-CYANO-3,9-DIHYDROXY-6H-CHROMENO[4,3-b]QUINOLINE] |
| 295 °C (dec.) | 82 | 17 | 1420 | N#Cc1ccc(-c2c3c(nc4ccc(O)cc24)-c2ccc(O)cc2OC3)cc1 [Cpd 14, 7-(4-CYANOPHENYL)-3,9-DIHYDROXY-6H-CHROMENO[4,3-b]QUINOLINE] |
| 275 °C (dec.) | 150 | 8 | 1130 | N#Cc1cccc(-c2c3c(nc4ccc(O)cc24)-c2ccc(O)cc2OC3)c1 [Cpd 19, 7-(3-CYANOPHENYL)-3,9-DIHYDROXY-6H-CHROMENO[4,3-b]QUINOLINE] |
